Assay results reported in patent US6403533B2, “Stabilized microbicide formulation” (Rohm and Haas Company, priority 2000, dated 2002).

assay: Visual examination for brown precipitate formation upon storage of dilute aqueous CMI/MI solutions; format: physicochemical; details: storage at 55 °C, 30 ppm copper ion
Experimental: An advantage of the compositions of the present invention is that they are both physically and chemically stable as prepared and upon storage. […] By “physically stable” we mean that the compositions are fluid and show no visible brown precipitate formation after storage for at least 4 weeks at 55° C., and preferably for at least 8 weeks at 55° C. By “chemically stable” is meant that the 3-isothiazolone, particularly the CMI compound, retains at least 60%, preferably at least 70% and more preferably at least 80%, of its original concentration in the dilute solution composition after storage for at least 4 weeks at 55° C., and preferably for at least 8 weeks at 55° C.
Some embodiments of the invention are described in detail in the following Examples. All ratios, parts and percentages are expressed by weight unless otherwise specified, and all reagents used are of good commercial quality unless otherwise specified. The level of copper is reported in ppm as the level of cupric ion. Samples were considered stable when the samples were free of brown precipitate after being stored at least 4 weeks, and preferably at least 8 weeks, at 55° C. Abbreviations used in the Examples and Tables are listed below with the corresponding descriptions.
The samples tested were prepared by adding known amounts of 3-isothiazolone, copper sulfate pentahydrate, water-soluble organic solvent and DI water to a 100-ml glass jar equipped with a magnetic stir bar. The 3-isothiazolone used was an approximate 3:1 (weight/weight) mixture of CMI and MI (98% purity). Ingredients were combined in a manner to provide test solutions containing 1.5% of the 3-isothiazolone (1.53 g per 100 g total solution), 30 ppm copper ion (0.0118 g copper sulfate pentahydrate per 100 g total solution) and various concentrations of water-soluble organic solvent (0 g, 1 g, 5 g, 10 g, 25 g and 50 g per 100 g total solution, corresponding to 0%, 1%, 5%, 10%, 25% or 50% solvent, respectively); the remainder of the solution (to 100 g total) was made up with DI water. Each sample was stirred until all solids were dissolved; portions (approximately 10 g) were then transferred to 20-ml glass vials and stored at room temperature or in an oven at 55° C. The samples were visually examined at various time points to determine the formation of brown precipitate and analyzed by HPLC/UV detection to determine the amount of CMI remaining; in all cases the amount of remaining MI was unchanged (100% of original value).

Structure (SMILES)	stabilizing effect of the solvent regarding prevention of brown precipitate formation (in words)
CC(O)CO (stereo not shown) [PG, Propylene Glycol (1,2-Propanediol)]	effective stabilizing solvent above levels of 1%
OCCCCCO [1,5-pentanediol, 1,5-Pentandiol (Pentamethylene Glycol)]	effective stabilizing solvents at use levels above 1%
CCOC(C)=O [ethyl acetate, Ethyl Acetate]	effective stabilizing solvents at use levels above 1%
CCO [ethanol, Ethanol]	effective stabilizing solvents at use levels above 1%
